US6906205B2, “Spiro and dispiro 1,2,4-trioxolane antimalarials” (Medicines for Malaria Venture MMV, priority 2002, dated 2005)
≈ marks a conversion by molar mass, not a printed value.

How the values were obtained:
[1] = system: P. falciparum K1 strain (Thailand resistant to chloroquine); experiment: semiautomated microdilution assay, [3H]-hypoxanthine incorporation, K1 strain; format: cell-based, Plasmodium falciparum; conditions: K1 strain, 72 h incubation
Summary of the method: (§1)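 Compounds were tested against intraerythrocytic parasites taken from asynchronous stock cultures, using semiautomated microdilution. IC50 values were estimated by logit regression analysis.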

[2] = system: P. falciparum NF54 strain (sensitive to standard antimalarials); experiment: semiautomated microdilution assay, [3H]-hypoxanthine incorporation, NF54 strain; format: cell-based, Plasmodium falciparum; conditions: NF54 strain, 72 h incubation
Summary of the method: as §1

[3] = system: Schistosoma mansoni 21-day-old schistosomules; experiment: effect on 21-day-old schistosomules in mice; format: in vivo; conditions: single 200 mg/kg per os, female mice
Experimental: All groups were killed 4 weeks after treatment and the liver and intestine were removed and separated. The liver and intestine were compressed and alive male and female worms could be seen and counted. The effect of the compounds was evaluated by mean total and female worm burden.

[4] = system: ANKA strain of P. berghei; experiment: single dose STI in vivo screen in infected mice; design: species or system Plasmodium berghei; conditions: for Activity (%) po / Activity (%) sc / Activity (%) SSVpo: percent reduction in parasitemia day 3 post-infection, mice; for Activity (%) po / Survival (days) po: single 10 mg/kg po in 3% ethanol and 7% Tween 80; for Activity (%) sc / Survival (days) sc: single 10 mg/kg sc in 3% ethanol and 7% Tween 80; for Activity (%) SSVpo: single po dose in standard suspending vehicle (SSV); for Survival (days) po / Survival (days) sc / Survival (days) SSVpo: untreated control 5.6 ± 0.3; for Survival (days) SSVpo: single po dose in SSV
Summary of the method: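 Groups of 3-5 Moro SPF or NMRI mice infected with the ANKA strain of P. berghei received a single dose of trioxolane on day one post-infection. The compound was given in 3% ethanol and 7% Tween 80 or in SSV (0.5% w/v CMC, 0.5% v/v benzyl alcohol, 0.4% v/v Tween 80, 0.9% w/v sodium chloride in water). Antimalarial activity was scored as percent reduction in parasitemia on day three and as survival time versus untreated controls. Survival to day 30 counted as cure.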

[5] = system: Schistosoma mansoni adult schistosomes (49-day-old); experiment: effect on adult schistosomes (49-day-old) in mice; format: in vivo
Experimental: Mice were infected with 100 Schistosoma mansoni cercariae […]. Each group was treated per os with OZ compounds at single doses of 200, 400, and 600 mg/kg. […] All groups were killed 4 weeks after treatment and the liver and intestine were removed and separated. The liver and intestine were compressed and alive male and female worms could be seen and counted.

| SMILES | IC50 (ng/ml) K1 [1] | IC50 (ng/ml) NF54 [2] | % reduction of schistosomule growth at day 21 after per os application of 200 mg/kg, FWR (%) [3] [%] | % reduction of schistosomule growth at day 21 after per os application of 200 mg/kg, TWR (%) [3] [%] | Activity (%) po ([4]; 10 mg/kg) [%] | Activity (%) sc ([4]; 10 mg/kg) [%] | Activity (%) SSVpo [4] [%] | Survival (days) po [4] [days] | Survival (days) sc ([4]; 10 mg/kg) [days] | Survival (days) SSVpo [4] [days] | Activity (%) sc [4] [%] | Survival (days) po ([4]; 10 mg/kg) [days] | Activity (%) po [4] [%] | Survival (days) sc [4] [days] | % reduction of adult worms growth at day 49 after per os application of 400 mg/kg, TWR (%) ([5]; single 400 mg/kg per os) | adult worms at day 49, per os 400 mg/kg, DEAD WORM (%) ([5]; single 400 mg/kg per os) | adult worms at day 49, per os 600 mg/kg, DEAD WORM (%) ([5]; single 600 mg/kg per os) |
| --- | --- | --- | --- | --- | --- | --- | --- | --- | --- | --- | --- | --- | --- | --- | --- | --- | --- |
| OC12CC3CC(C1)C1(OOC4(CCC5(CC4)OCCO5)O1)C(C3)C2 (centres unmarked) [OZ152] | 3.2 ng/mL (≈ 9.46 nM) | 7.2 ng/mL (≈ 21.3 nM) | 11 | 19 | 0 | 22 | 12 | 6.3 | 6.7 | 6.7 |  |  |  |  |  |  |  |
| NC[C@H]1CC[C@]2(CC1)OOC1(O2)C2CC3CC(C2)CC1C3 (some centres unmarked) [OZ163] | 0.2/0.2 ng/ml | 0.2/0.2 ng/ml | 80 |  | 99.90 |  | 99.94 |  | 9.7 | 9.0 | 100 | 8.0 |  |  |  |  |  |
| O=[N+]([O-])c1ccc(N2CCC3(CC2)OOC2(O3)C3CC4CC(C3)CC2C4)cc1 (centres unmarked) [OZ151] | 3.8 ng/mL (≈ 9.83 nM) | 4.0 ng/mL (≈ 10.4 nM) | 19 | 19 |  |  | 71 | 7.3 |  | 7.3 | 99.63 |  | 71 | 11.0 |  |  |  |
| C1C2CC3CC1CC(C2)C31OOC2(CCC3(CC2)OOC2(O3)C3CC4CC(C3)CC2C4)O1 (centres unmarked) [OZ169] | 15 ng/mL (≈ 33.7 nM) | > 10 ng/mL | 0 | 0 |  |  | 22 | 7.7 |  | 6.7 | 99.76 |  | 98 | 9.0 |  |  |  |
| c1cn(C[C@H]2CC[C@]3(CC2)OOC2(O3)C3CC4CC(C3)CC2C4)cn1 (some centres unmarked) [OZ145] | 0.50 ng/mL (≈ 1.45 nM) | 0.76 ng/mL (≈ 2.21 nM) | 83 | 80 | 99.82 | 99.87 | 99.21 |  | 10.7 | 10.7 |  | 8.3 |  |  |  |  |  |
| CS(=O)(=O)N1CCC2(CC1)OOC1(O2)C2CC3CC(C2)CC1C3 (centres unmarked) [OZ56] | 0.59 ng/mL (≈ 1.72 nM) | 0.64 ng/mL (≈ 1.86 nM) | 66 | 69 |  |  | 63 | 6.7 |  | 5.7 | 99.97 |  | 93 | 10.3 |  |  |  |
| CN1CCN(C(=O)N2CCC3(CC2)OOC2(O3)C3CC4CC(C3)CC2C4)CC1 (centres unmarked) [OZ157] | 0.20 ng/mL (≈ 0.511 nM) | 0.22 ng/mL (≈ 0.562 nM) | 68 | 65 |  |  | 80 | 7.3 |  | 8.3 | 97 |  | 90 | 8.3 |  |  |  |
| O=C(C1CCCCC1)N1CC(=O)N2CCc3ccccc3C2C1 (centres unmarked) [PRAZIQUANTEL, praziquantel, reference compound] |  |  | 0 | 0 |  |  |  |  |  |  |  |  |  |  | 96/96% | 96/96% | 100/100% |
| c1ccc(CON=C2CCC3(CC2)OOC2(O3)C3CC4CC(C3)CC2C4)cc1 (centres unmarked) [OZ19] | 1.3 ng/mL (≈ 3.39 nM) | 2.7 ng/mL (≈ 7.04 nM) | 74 | 77 |  |  | 56 | 7.5 |  | 6.0 | 99.98 |  | 98.3 | 13.4 |  |  |  |
| O=C(NN=C1CCC2(CC1)OOC1(O2)C2CC3CC(C2)CC1C3)Nc1ccccc1 (centres unmarked) [OZ30] | 0.65 ng/mL (≈ 1.58 nM) | 1.3 ng/mL (≈ 3.16 nM) | 12 | 16 |  |  |  | 5.3 |  |  | 86 |  | 0 | 9.0 |  |  |  |
| CC1(C)CC(C)(C)CC2(C1)OOC1(O2)C2CC3CC(C2)CC1C3 (centres unmarked) [OZ26] | 3.1 ng/mL (≈ 9.67 nM) | 5.0 ng/mL (≈ 15.6 nM) | 40 | 37 |  |  |  | 7.0 |  |  | 99.9 |  | 88 | 9.7 |  |  |  |
| CC(C)(C)OC(=O)N1CCC2(CC1)OOC1(O2)C2CC3CC(C2)CC1C3 (centres unmarked) [OZ35] | 1.7 ng/mL (≈ 4.65 nM) | 2.1 ng/mL (≈ 5.75 nM) | 63 | 73 |  |  |  | 6.3 |  |  | 99.98 |  | 74 | 9.3 |  |  |  |
| ON=C1CCC2(CC1)OOC1(O2)C2CC3CC(C2)CC1C3 (centres unmarked) [OZ16] | 0.45 ng/mL (≈ 1.53 nM) | 0.67 ng/mL (≈ 2.28 nM) | 77 | 78 |  |  | 83 | 6.7 |  | 6.7 | 99.2 |  | 79 | 7.3 |  |  |  |
| c1ccc(CNC2CCC3(CC2)OOC2(O3)C3CC4CC(C3)CC2C4)cc1 (centres unmarked) [OZ160] | 0.70 ng/mL (≈ 1.89 nM) | 0.87 ng/mL (≈ 2.35 nM) | 0 | 15 |  |  | 43 | 6.3 |  | 6.7 | 99.94 |  | 45 | 12.0 |  |  |  |
